{"source": "ChEMBL document CHEMBL1201862", "about": "“PubChem BioAssay data set” (2004)", "key": {"[1]": {"test": "inhibitors of firefly luciferase expression or activity, dose response, H4 neuroglioma cells, luminescence (AID 1990)", "assay_type": "functional, cell-based"}, "[2]": {"test": "Luminescence Cell-Based Dose Response HTS to Identify Inhibitors of 5'UTR Stem-Loop Driven Prion Protein mRNA Translation in H4 Neuroglioblastoma Cells. [Related pubchem assays: 1827 (Project Summary), 1813 (Primary HTS)]", "assay_type": "functional"}, "[3]": {"test": "inhibitors of SNCA 5'UTR-driven reporter translation, confirmation, H4 neuroglioma cells, luminescence (AID 1988)", "assay_type": "functional, cell-based"}, "[4]": {"test": "microbe, parasite or virus in culture", "assay_type": "functional", "conditions": "Mycobacterium tuberculosis"}, "Beta-lactamase [5]": {"biological_target": "Beta-lactamase (Pseudomonas aeruginosa, UniProt Q79MP6)"}, "Beta-lactamase [6]": {"biological_target": "Beta-lactamase (Salmonella choleraesuis (strain SC-B67), UniProt Q5J463)"}, "INS1": {"test_system": "INS1", "test": "beta cell apoptosis inhibitors, cytokine rescue, dose response, luminescence, retest (AID 449756);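 further: cell death triggered by IL-1 beta plus TNF-alpha plus IFN-gamma mixture; protective hits raise ATP signal compared with cytokine alone wells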", "assay_type": "functional, cell-based", "conditions": "Rattus norvegicus"}, "Major prion protein": {"biological_target": "Major prion protein (Homo sapiens, UniProt P04156)", "assay_type": "functional, cell-based"}, "cells [7]": {"test": "cells"}, "Paired box protein Pax-8": {"biological_target": "Paired box protein Pax-8 (Homo sapiens, UniProt Q06710)", "test": "inhibitors of PAX8-driven TPO luciferase reporter, dose response, RMG-I cells, cherry-pick (AID 687027);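 further: luciferase reporter driven by Pax8 target thyroperoxidase promoter measured by SteadyGlo luminescence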", "assay_type": "functional, cell-based"}, "[8]": {"test": "IOSE-T80 ovarian epithelial cell cytotoxicity, dose response, cytotoxicity control for PAX8 inhibitor project, plate reader, dry powder samples (AID 743045)", "assay_type": "functional, cell-based"}, "[9]": {"test": "inhibitors of PGC1a acetylation in cells, dose response, cell-based, cherry-picked samples (AID 720514);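 further: potency may reflect raised or lowered acetylation signal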", "assay_type": "functional"}, "[10]": {"test": "NIH:OVCAR-3 ovarian cancer cell cytotoxicity, dose response, PAX8 inhibitor project, plate reader, dry powder samples (AID 743044)", "assay_type": "functional, cell-based"}, "[11]": {"test": "non-specific cell cytotoxicity, dose response, cytotoxicity control for PAX8 inhibitor project, plate reader, dry powder samples (AID 743021)", "assay_type": "functional, cell-based"}, "[12]": {"test": "cytotoxicity in OVCAR8 ovarian cancer cells, dose response, PAX8 project, cell-based, plate reader, dry powder samples (AID 743197)", "assay_type": "functional", "conditions": "OVCAR-8"}, "[13]": {"test": "P. falciparum Dd2 growth inhibitors, dose response, SYBR Green, cherry-picked samples (AID 1159567)", "assay_type": "functional, cell-based"}, "[14]": {"test": "HepG2 cell cytotoxicity, dose response, cytotoxicity control, cherry-picked samples (AID 1159577)", "assay_type": "functional, cell-based"}, "[15]": {"test": "HepG2 cell cytotoxicity, dose response, cytotoxicity control, dry powder samples (AID 720568)", "assay_type": "functional, cell-based"}, "[16]": {"test": "Late stage assay provider results from the probe development effort to identify selective inhibitors of heat shock protein 90 (HSP90): Absorbance-based cell proliferation assay in SKBR3 cells.", "assay_type": "functional", "conditions": "SK-BR-3"}, "[17]": {"test": "Late stage assay provider results from the probe development effort to identify selective inhibitors of heat shock protein 90 (HSP90): Absorbance-based cell proliferation assay in MCF7 cells.", "assay_type": "functional"}, "[18]": {"biological_target": "Delta-type opioid receptor (Homo sapiens, UniProt P41143)", "test": "Late-stage results from the probe development effort to identify antagonists of OPRK1: fluorescence-based cell-based dose response OPRD1 counterscreen.", "assay_type": "functional"}, "Mu-type opioid receptor": {"biological_target": "Mu-type opioid receptor (Homo sapiens, UniProt P35372)", "test": "Late-stage results from the probe development effort to identify antagonists of OPRK1: luminescence-based cell-based dose response OPRM1 counterscreen.", "assay_type": "functional"}, "[19]": {"test": "TB: CFU replicating Measured in Microorganism System Using Imaging - 7108-05_Inhibitor_Dose_DryPowder_Activity_Set2.", "assay_type": "functional"}, "[20]": {"biological_target": "T1, Oxysterols receptor LXR-beta (Homo sapiens, UniProt P55055)", "T1 sequence (P55055 whole entry)": "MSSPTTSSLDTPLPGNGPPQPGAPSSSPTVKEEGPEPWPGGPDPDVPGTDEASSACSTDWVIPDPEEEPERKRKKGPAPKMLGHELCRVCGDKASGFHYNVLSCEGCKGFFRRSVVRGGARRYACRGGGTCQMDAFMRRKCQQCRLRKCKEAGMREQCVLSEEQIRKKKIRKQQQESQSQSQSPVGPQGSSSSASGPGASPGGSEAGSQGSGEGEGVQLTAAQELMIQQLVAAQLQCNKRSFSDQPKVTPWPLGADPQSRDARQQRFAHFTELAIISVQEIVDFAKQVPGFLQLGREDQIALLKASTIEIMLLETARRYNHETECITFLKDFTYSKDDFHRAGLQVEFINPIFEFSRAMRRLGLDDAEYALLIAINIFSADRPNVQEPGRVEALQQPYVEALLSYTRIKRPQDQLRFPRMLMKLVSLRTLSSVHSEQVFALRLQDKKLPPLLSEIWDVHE", "assay_type": "functional, cell-based"}, "[21]": {"biological_target": "1-phosphatidylinositol 4,5-bisphosphate phosphodiesterase gamma-1 (Homo sapiens, UniProt P19174)", "test": "Counterscreen for inhibitors of phospholipase C isozymes (PLC-B3): Fluorescence-based biochemical high throughput dose response assay to identify inhibitors of phospholipase C isozymes (PLC-gamma1)."}, "[22]": {"biological_target": "1-phosphatidylinositol 4,5-bisphosphate phosphodiesterase beta-3 (Homo sapiens, UniProt Q01970)", "test": "Fluorescence-based biochemical high throughput dose response assay to identify inhibitors of phospholipase C isozymes (PLC-B3)."}, "[23]": {"test": "BHK-21 cell cytotoxicity, cytotoxicity control for flavivirus guanylyltransferase probe project, secondary screen (AID 624078)", "assay_type": "functional"}, "[24]": {"test": "HEp-2 cell cytotoxicity, dose response, cytotoxicity control for RSV inhibitor project, HTS (AID 2410)", "assay_type": "functional", "conditions": "human respiratory syncytial virus"}, "[25]": {"test": "endogenous miR-122 level reduction, dose response, orthogonal assay for miR-122 inhibitor project, cell-based, Huh7, RT-qPCR, dry powder (AID 687041)", "assay_type": "functional"}, "cells [26]": {"test": "cells", "remark": "listed apart in the source"}}, "note": "Activity calls are given as the source filed them.", "data": [{"smiles": "CCOc1ccc(-c2cc(C(=O)NCCCn3ccnc3)c3cc(Br)ccc3n2)cc1", "values": [{"measurement": "EC50", "setting": "[1]", "value": "> 120 µM (not active)"}, {"measurement": "EC50", "setting": "[2]", "value": "> 120 µM (not active)"}, {"measurement": "EC50", "setting": "[3]", "value": "> 120 µM (not active)"}, {"measurement": "CC50", "setting": "[4]", "value": "16.7 µM (active)"}, {"measurement": "IC50", "setting": "Beta-lactamase [5]", "value": "> 59.6 µM (inactive)"}, {"measurement": "IC50", "setting": "Beta-lactamase [6]", "value": "> 59.6 µM (inactive)"}, {"measurement": "AC50", "setting": "INS1", "value": "9.7 µM (active)"}, {"measurement": "IC50", "setting": "Major prion protein", "value": "4.38 µM (active)"}, {"measurement": "IC50", "setting": "cells [7]", "value": "23.5 µM (inactive)"}]}, {"smiles": "Cc1ccc(-c2ccc([C@@H]3[C@@H]4CN(C(=O)Nc5ccc(C(F)(F)F)cc5)C[C@H]3N4)cc2)cc1", "values": [{"measurement": "AC50", "setting": "Paired box protein Pax-8", "value": "3.06 µM (active)"}, {"measurement": "AC50", "setting": "[8]", "value": "11.3 µM (active)"}, {"measurement": "AC50", "setting": "[9]", "value": "6.73 µM (active)"}, {"measurement": "AC50", "setting": "[10]", "value": "17 µM (active)"}, {"measurement": "AC50", "setting": "[11]", "value": "14 µM (active)"}, {"measurement": "AC50", "setting": "[12]", "value": "22.8 µM (active)"}, {"measurement": "AC50", "setting": "[13]", "value": "2.33 µM (active)"}, {"measurement": "AC50", "setting": "[14]", "value": "2.72 µM (active)"}]}, {"smiles": "CC(=O)N[C@H]1[C@@H](O[C@@H]2OC(C[C@@H](O)C3O[C@@H](n4ccc(=O)[nH]c4=O)[C@H](O)[C@@H]3O)[C@H](O)[C@H](O)[C@H]2NC(=O)/C=C/CCCCCCCCCCC(C)C)O[C@H](CO)[C@@H](O)[C@@H]1O", "note": "(stereo not given in full)", "values": [{"measurement": "AC50", "setting": "[15]", "value": "13.5 µM (active)"}]}, {"smiles": "O=C1OC(=O)/C(=C\\Nc2ccccc2F)C=C1Br", "values": [{"measurement": "IC50", "setting": "[16]", "value": "13.3 µM (inactive)"}, {"measurement": "IC50", "setting": "[17]", "value": "13.6 µM (inactive)"}]}, {"smiles": "COC(=O)c1cc(Br)cnc1N1CCC(NC2CCCC(O)C2)CC1", "note": "(stereo not given)", "values": [{"measurement": "IC50", "setting": "[18]", "value": "> 50 µM (inactive)"}, {"measurement": "IC50", "setting": "Mu-type opioid receptor", "value": "16 µM (inactive)"}]}, {"smiles": "Cn1c(-n2c(=O)nc3n(C)c4ccccc4n3c2=O)nc2ccccc21", "values": [{"measurement": "AbsAC90", "setting": "[19]", "value": 268.91, "unit": "µM"}]}, {"smiles": "Cc1cccc(C(=N)NOC(=O)c2ccco2)c1", "values": [{"measurement": "EC50", "setting": "[20]", "value": "> 67.6 µM (inactive)"}]}, {"smiles": "Nc1ncnc2c1ncn2[C@@H]1O[C@H](COP(=O)(O)CP(=O)(O)O)[C@@H](O)[C@H]1O", "note": "[PHOSPHOMETHYLPHOSPHONIC ACID ADENOSYL ESTER]", "values": [{"measurement": "IC50", "setting": "[21]", "value": "2.2 µM (active)"}, {"measurement": "IC50", "setting": "[22]", "value": "> 122 µM (inactive)"}]}, {"smiles": "O=S(=O)(Nc1cc(SCc2ccccc2)c(O)c2ccccc12)c1ccc(Cl)cc1", "values": [{"measurement": "CC50", "setting": "[23]", "value": "15 µM (active)"}]}, {"smiles": "CC1CCCCN1C(=O)c1cc2nc(-c3ccccc3)cc(-c3ccccc3)n2n1", "note": "(stereo not given)", "values": [{"measurement": "CC50", "setting": "[24]", "value": "15.6 µM (active)"}, {"measurement": "AC50", "setting": "[25]", "value": "1.13 µM (active)"}, {"measurement": "IC50", "setting": "cells [26]", "value": "19.3 µM (active)"}]}]}
